Assays:
SH-SY5Y nerve cells [1] = test: L-glutamic acid-damaged SH-SY5Y cell model (MTT); assay type: cell-based; details: summary in words
Experimental: (§1) 2.1 Method for Culturing SH-SY5Y Nerve Cells
(§2) The SH-SY5Y nerve cells were cultured in a DMEM culture medium (containing 5% of fetal calf serum in volume fraction) in an incubator containing 5% CO2 at 37° C., while subculturing every 3 to 4 days. Cells in a logarithmic phase were selected for experiments.
2.3 Method for Screening with L-Glutamic Acid-Damaged Models
SH-SY5Y cells were inoculated at a concentration of 5×10^3 in a 96-well plate, and then cultured for 24 h, and 100 μL of a liquid culture medium containing L-glutamic acid and a crocin-like compound was added to a 96-well plate, such that a final concentration of L-glutamic acid was 160 mM and a final medication concentration of the crocin-like compound was 10 μM, 1 μM, 0.1 μM, with each concentration in triplicate, followed by culturing for 24 h. After 24 h, a supernatant was sucked out and discarded, to each well was added 100 μL of MTT (0.5 mg/mL), followed by incubation for 4 h. A supernatant was sucked out and discarded, to each well was added 150 μL of DMSO, followed by shaking for 10 min, and a wavelength of 570 nm was selected to measure a value of absorbancy on a microplate reader^[13]. (Effective rate %=(ODcrocin-like compound−ODmodel)/(ODcontrol−ODmodel)*100).

SH-SY5Y nerve cells [2] = test: Hydrogen peroxide-damaged SH-SY5Y cell model (MTT); assay type: cell-based; details: summary in words
Experimental: as §1, §2
2.2 Method for Screening with Hydrogen Peroxide-Damaged Models
SH-SY5Y cells were inoculated at a concentration of 5×10^3 in a 96-well plate, and then cultured for 24 h, and 100 μL of a liquid culture medium containing H2O2 and a crocin-like compound was added to the 96-well plate, such that a final concentration of H2O2 was 400 μM and a final concentration of the crocin-like compound was 10 μM, 1 μM, 0.1 μM, with each concentration in triplicate, followed by culturing for 24 h. After 24 h, a supernatant was sucked out and discarded, and to each well was added 100 μL of MTT (0.5 mg/mL), followed by incubation for 4 h. A supernatant was sucked out and discarded, to each well was added 150 μL of DMSO, followed by shaking for 10 min, and a wavelength of 570 nm was selected to measure a value of absorbancy on a microplate reader^[12]. (Effective rate %=(ODcrocin-like compound−ODmodel)/(ODcontrol−ODmodel)*100).

PC-12 cells = details: antioxidant effect (GSH increase, inhibition of peroxidized lipid, SOD retained); cited from earlier work

CC(/C=C/C=C(\C)C(=O)O[C@@H]1OC(CO[C@@H]2OC(CO)[C@@H](O)C(O)C2O)[C@@H](O)C(O)C1O)=C\C=C\C=C(C)\C=C\C=C(/C)C(=O)O[C@@H]1[C@@H](O)C[C@](O)(C(=O)O)C[C@H]1OC(=O)/C=C/c1ccc(O)c(O)c1 (stereo in doubt) [GJ-1, neocrocin B]
protection effect on SY5Y cell damage models induced by L-glutamic acid (SH-SY5Y nerve cells [1]): more excellent protection effects

COc1cc(/C=C/C(=O)OCC2O[C@@H](OCC3O[C@@H](OC(=O)/C(C)=C/C=C/C(C)=C/C=C/C=C(C)/C=C/C=C(\C)C(=O)O[C@@H]4OC(CO[C@@H]5OC(CO)[C@@H](O)C(O)C5O)[C@@H](O)C(O)C4O)C(O)C(O)[C@@H]3O)C(O)C(O)[C@@H]2O)cc(OC)c1O (stereo partly shown) [GJ-6, neocrocin G]
protection effect on SY5Y cell damage models induced by H2O2 (SH-SY5Y nerve cells [2]): more excellent protection effects
protection effect on SY5Y cell damage models induced by L-glutamic acid (SH-SY5Y nerve cells [1]): more excellent protection effects

COc1cc(/C=C/C(=O)OCC2O[C@@H](OCC3O[C@@H](OC(=O)/C(C)=C/C=C/C(C)=C/C=C/C=C(C)/C=C/C=C(\C)C(=O)O)C(O)C(O)[C@@H]3O)C(O)C(O)[C@@H]2O)cc(OC)c1O (stereo partly shown) [GJ-7, neocrocin F]
protection effect on SY5Y cell damage models induced by L-glutamic acid (SH-SY5Y nerve cells [1]): more excellent protection effects

CCOC(=O)/C(C)=C/C=C/C(C)=C/C=C/C=C(C)/C=C/C=C(\C)C(=O)O[C@@H]1O[C@H](CO[C@@H]2O[C@H](CO)[C@@H](O)[C@H](O)[C@H]2O)[C@@H](O)[C@H](O)[C@H]1O [GJ-8, neocrocin H]
protection effect on SY5Y cell damage models induced by H2O2 (SH-SY5Y nerve cells [2]): more excellent protection effects
protection effect on SY5Y cell damage models induced by L-glutamic acid (SH-SY5Y nerve cells [1]): more excellent protection effects

C\C(C=O)=C/C=C/C(C)=C/C=C/C=C(C)/C=C/C=C(\C)C(=O)O[C@@H]1OC(CO[C@@H]2OC(CO)[C@@H](O)C(O)C2O)[C@@H](O)C(O)C1O (stereo partly shown) [GJ-9, neocrocin I]
protection effect on SY5Y cell damage models induced by L-glutamic acid (SH-SY5Y nerve cells [1]): more excellent protection effects

CC(/C=C/C=C(\C)C(=O)O)=C\C=C\C=C(C)\C=C\C=C(/C)C(=O)O[C@@H]1OC(CO[C@@H]2OC[C@@H](O)C(O)C2O)[C@@H](O)C(O)C1O (stereo partly shown) [GJ-10, neocrocin J]
protection effect on SY5Y cell damage models induced by H2O2 (SH-SY5Y nerve cells [2]): more excellent protection effects
protection effect on SY5Y cell damage models induced by L-glutamic acid (SH-SY5Y nerve cells [1]): more excellent protection effects

CC(/C=C/C=C(\C)C(=O)O[C@@H]1O[C@H](CO[C@@H]2O[C@H](CO)[C@@H](O)[C@H](O)[C@H]2O)[C@@H](O)[C@H](O)[C@H]1O)=C\C=C\C=C(C)\C=C\C=C(/C)C(=O)O[C@@H]1O[C@H](CO[C@@H]2O[C@H](CO)[C@@H](O)[C@H](O)[C@H]2O)[C@@H](O)[C@H](O)[C@H]1O [crocin-1, crocin digentiobioside]
protective effect on PC-12 cells (PC-12 cells): protective effect on PC-12 cells

Source: patent publication US11440931B2, “Crocins compounds and uses thereof” (Jinan University, priority 2016, dated 2022)
